Patent publication US20240025857A1, “NEW CATECHOLAMINE PRODRUGS FOR USE IN THE TREATMENT OF PARKINSON'S DISEASE” (H. Lundbeck A/S, priority 2020, published 2024)
Converted amounts (≈) assume the structure as drawn. Counter-ions that a name gives are not always drawn.

Experiments:
physchem = assay type: physicochemical; conditions: aqueous buffer, thermodynamic from solid; 25 mM phosphate buffer pH 6, 24 hours rotation, saturated solution; read-out: Measured solubility at pH 6
Description: For compound (III), a sample was prepared with excess compound (III) to establish a saturated solution. 4.2 mg of compound (III) was transferred to a vial and 0.5 mL buffer (25 mM phosphate buffer, NaH2PO4/Na2HPO4, pH 6) was added. The sample was mixed by rotation for 24 hours. pH of the sample was measured at t=0 (prior to rotation) and at t=24 h (after 24 h of rotation). Subsequently, some of the sample was filtered with 0.22 micrometer polyvinylidene difluoride filter, first few drops discarded, and content of dissolved compound (III) was quantified by reverse phased HPLC (C18, 3.5 micrometer, 4.6×150 mm column) with eluent 20 mM ammonium buffer pH 2.4 with methanol, 80:20.
The remaining undissolved material was extracted, and air dried for approximately 20 minutes on a metal plate prior to analysis by X-ray powder diffractogram (XRPD). XRPD diffractograms were obtained on a PANalytical X'Pert PRO X-Ray Diffractometer using CuKa1 radiation (λ=1.5406 Å). The samples were measured in reflection mode in the 2θ-range 3-39.9° using an X'celerator detector.

[1] = Conversion to compound (I) in human liver S9; assay type: in vitro ADME; conditions: 1 μM, 4 mg/mL protein, 37° C., 0-60 minutes; compared to (Id-iia) and (Id-iib); FIG. 3
Description: The compounds (II), (III), (Id-iia), and (Id-iib) were incubated separately at 1 μM with rat and human liver S9 fraction suspended in 50 mM phosphate buffer at pH 7.4 with 5 mM MgCl2, 200 U/mL superoxide dismutase and 1 mM ascorbic acid. The human liver S9 (pool from 50 donors) and the rat liver S9 (from Wistar Han rats, pool of 240) fractions were purchased from SekisuiXenoTech, USA. The protein concentration in the incubation was 4 mg/mL. The incubations were performed in 96-well plates at 37° C. using an automated Hamilton liquid handling system with a total incubation volume of 150 microliter per well. The compounds were each incubated in triplicates in three wells per time point. The liver S9 suspensions were pre-incubated at 37° C. and the reactions started by addition of stock solutions of the test compounds to the incubation wells. The test compounds were dissolved in dimethyl sulfoxide (DMSO) and further diluted in water before spiking the stock solution into the incubation wells. […] Concentrations of compound (I) were determined after solid-phase extraction of the samples followed by LC-MS/MS analysis. The increase in concentration of compound (I) at the different time points was calculated by subtracting the concentration of compound (I) in the sample taken at time 0 from the concentrations of compound (I) in samples taken at the different time points. […]

[2] = assay type: in vitro ADME, Wistar Han rats; conditions: 1 μM, 4 mg/mL protein, 37° C., 0-60 minutes; FIG. 4
Description: The human liver S9 (pool from 50 donors) and the rat liver S9 (from Wistar Han rats, pool of 240) fractions were purchased from SekisuiXenoTech, USA. The protein concentration in the incubation was 4 mg/mL. The incubations were performed in 96-well plates at 37° C. using an automated Hamilton liquid handling system with a total incubation volume of 150 microliter per well. The compounds were each incubated in triplicates in three wells per time point. The liver S9 suspensions were pre-incubated at 37° C. and the reactions started by addition of stock solutions of the test compounds to the incubation wells. The test compounds were dissolved in dimethyl sulfoxide (DMSO) and further diluted in water before spiking the stock solution into the incubation wells. The final DMSO concentration in the incubations was 0.1%. The test compounds were incubated with liver S9 fractions for 0, 5, 10, 15, 30, 45 and 60 minutes. The incubations were terminated by transferring 100 microliter of the incubation samples to a 96-well plate containing 100 microliter of cold (approximately +4° C.) stop reagent containing 2% formic acid, 20 mg/mL ascorbic acid, 10 mg/mL citric acid and 3 mg/mL TCEP (tris(2-carboxyethyl)phosphine). After mixing, the samples were transferred to Nunc 1.0 mL cryo tubes and immediately frozen at −80° C. until analysis. Concentrations of compound (I) were determined after solid-phase extraction of the samples followed by LC-MS/MS analysis. The increase in concentration of compound (I) at the different time points was calculated by subtracting the concentration of compound (I) in the sample taken at time 0 from the concentrations of compound (I) in samples taken at the different time points.
Mass spectrometer (LC-MS/MS) Waters Acquity-Waters Xevo TQ-S. Analytical column Acquity BEH C18 50×2.1 mm, 1.7 micrometer. Mobile phase A: 0.2% formic acid in 20 mM NH4-Formate. Mobile phase B: 0.2% formic acid in acetonitrile. Gradient run from 5% B to 95% B in 3.5 minutes. Flow rate 0.6 mL/min. […]

[3] = PK experiments in rats: plasma compound (I) after oral dosing of prodrug; conditions: for conversion to compound (I) in vivo: oral dosing, rats, Example 2
Description: (§1) The tubes were inverted gently 6-8 times to ensure thorough mixing and then placed in wet ice. The collecting tube was placed in wet ice for up to 30 minutes until centrifugation (3000 G for 10 minutes at 4° C.). Once removed from the wet ice the centrifugation was initiated immediately. Immediately after end of centrifugation the samples were returned to wet ice. Two sub-samples of 130 microL plasma were transferred to each of two appropriately labelled cryo tubes containing 6.5 microL pre-cooled formic acid (20% in water v/v) The tube lid was immediately replaced, and the plasma solution was thoroughly mixed by inverting gently 6-8 times. The plasma samples were placed on water-ice as far as possible and stored frozen at nominally −70° C. within 60 minutes after sampling.
(§2) For experiments relating to compounds (II) and (III), the above protocol was used, with the exception that K3EDTA tubes were prepared with stabilizing aqueous solution consisting of 80 microL 100 mg/mL ascorbic acid and 40 microL inhibitor solution containing 100 mg/mL citric acid, 21 mg/mL D-saccharic acid 1,4 lactone and 29 mg/mL tris-(2-carboxyethyl)phosphine (TCEP).
(§3) Plasma samples were analyzed by solid phase extraction or direct protein precipitation followed by UPLC-MS/MS. MS detection using electrospray in the positive ion mode with monitoring of specific mass-to-charge transitions for compound (I) using internal standards for correcting the response. The concentration-time data was analyzed, using standard software using appropriate noncompartmental techniques to obtain estimates of the derived PK parameters.
(§4) Han Wistar rats were supplied by Charles River Laboratories, Sulzfeld, Germany. An artificial, automatically controlled, light and dark cycle of 12 hours was maintained. The rats received a standard laboratory diet from Brogaarden (Altromin 1324 pellets). The rats had unrestricted access to the diet.
(§5) Han Wistar rats were supplied by Charles River Laboratories, UK. An artificial, automatically controlled, light and dark cycle of 12 hours was maintained. The rats received a standard laboratory diet (Teklad 2014C Diet). The rats had unrestricted access to the diet.

[4] = in man after oral dosing; extensive hepatic first-pass metabolism; cited from earlier work
[5] = male, Han Wistar, rat, in vivo, po
Description: as §1, §2, §3, §4, §5

| SMILES | solubility at 24 h (physchem) | conversion to compound (I) in human liver S9 fraction [1] | conversion to compound (I) in rat liver S9 [2] | conversion to compound (I) in vivo [3] | also measured |
| --- | --- | --- | --- | --- | --- |
| CCCN1CCC[C@@H]2Cc3c(ccc(OC(=O)C(C)(C)C)c3OC(=O)C(C)(C)C)C[C@H]21 [(Ic)] |  |  |  |  | plasma concentrations of compound (I) ([3]; oral administration of the prodrug, Wistar rats, in words): extremely low |
| CCCc1cc2c(s1)CN[C@@H]1CCc3cc(OC(C)=O)c(OC(C)=O)cc3[C@@H]21 [Adrogolide] |  |  |  |  | oral bioavailability [4]: ~4% |
| CCCN1CCC[C@@H]2CC3=C(CCCC3=O)C[C@H]21 [Compound (Ia)] |  |  |  |  | AUC0-24 [5]: 13.6 ng·h/mL; Cmax [5]: 3.16 ng/mL; Tmax ([5]; 0.3 mg/kg): 1.0 h; Exposure at 24 h ([5]; 24 h): 48 ± 26 pg/mL |

The next lines start with results.

| solubility at 24 h (physchem) | conversion to compound (I) in human liver S9 fraction [1] | conversion to compound (I) in rat liver S9 [2] | conversion to compound (I) in vivo [3] | SMILES | also measured |
| --- | --- | --- | --- | --- | --- |
| 890 µg/mL (≈ 2610 µM) | increased conversion to compound (I) | is converted to compound (I) | converted to compound (I) in vivo | CCCN1CCC[C@@H]2Cc3c(ccc(O)c3OS(N)(=O)=O)C[C@H]21 [Compound (III), (4aR,10aR)-7-hydroxy-1-propyl-1,2,3,4,4a,5,10,10a-octahydrobenzo[g]quinolin-6-yl sulfamate] |  |
|  | increased conversion to compound (I) | is converted to compound (I) | converted to compound (I) in vivo | CCCN1CCC[C@@H]2Cc3c(ccc(OS(N)(=O)=O)c3O)C[C@H]21 [Compound (II), (4aR,10aR)-6-hydroxy-1-propyl-1,2,3,4,4a,5,10,10a-octahydrobenzo[g]quinolin-7-yl sulfamate] |  |
| 37 µg/mL |  | is converted to compound (I) |  | CCCN1CCC[C@@H]2Cc3c(ccc(OS(=O)(=O)O)c3O)C[C@H]21 [Compound (Id-iib), (4aR,10aR)-6-hydroxy-1-propyl-1,2,3,4,4a,5,10,10a-octahydrobenzo[g]quinolin-7-yl hydrogen sulfate] |  |
